# Laboratory results from patent US12268674B2, “Mi-2β inhibitor as an immunotherapy agent” (BioVentures, LLC, priority 2021, dated 2025).
# Experiments:
# Experiment in all cases: ATPase profile (ATP acyl phosphate probe)
# Assay type in all cases: binding
# ABCC3 = biological target: T1, ABCC3 (Homo sapiens, UniProt O15438)
# T1 construct: host or cells: A375 cell lysate
# ABCC4 = biological target: T2, ABCC4 (Homo sapiens, UniProt O15439)
# T2 construct: to get the native cell lysate; host or cells: A375 cell lysate
# ABCF3 = biological target: T3, ABCF3 (Homo sapiens, UniProt Q9NUQ8); settings: ABCF3, SEQ ID NO: 19, ATP BS
# T3 construct: to get the native cell lysate; host or cells: A375 cell lysate
# ACACB = biological target: T4, ACACB (Homo sapiens, UniProt O00763); settings: SEQ ID NO: 21, ATP BS
# T4 construct: to get the native cell lysate; host or cells: A375 cell lysate
# AHCY = biological target: T5, AHCY (Homo sapiens, UniProt P23526); settings: SEQ ID NO: 30, ATP BS
# T5 construct: to get the native cell lysate; host or cells: A375 cell lysate
# APRT = biological target: T6, APRT (Homo sapiens, UniProt P07741); settings: SEQ ID NO: 40, ATP BS
# T6 construct: to get the native cell lysate; host or cells: A375 cell lysate
# ATG7 = biological target: T7, ATG7 (Homo sapiens, UniProt O95352)
# T7 construct: to get the native cell lysate; host or cells: A375 cell lysate
# COASY = biological target: T8, COASY (Homo sapiens, UniProt Q13057)
# T8 construct: endogenous in cells; host or cells: A375 cell lysate
# HDDC3 = biological target: T9, HDDC3 (Homo sapiens, UniProt Q8N4P3)
# T9 construct: to get the native cell lysate; endogenous in cells; host or cells: A375
# HSPA5 = biological target: T10, HSPA5 (Homo sapiens, UniProt P11021)
# T10 construct: to get the native cell lysate; endogenous in cells; host or cells: A375
# HYOU1 = biological target: T11, HYOU1 (Homo sapiens, UniProt Q9Y4L1)
# T11 construct: to get the native cell lysate; endogenous in cells; host or cells: A375
# MDN1 = biological target: T12, MDN1 (Homo sapiens, UniProt Q9NU22); settings: MDN1, SEQ ID NO: 121, ATP BS
# T12 construct: to get the native cell lysate; endogenous in cells; host or cells: A375
# NADK2 = biological target: T13, NADK2 (Homo sapiens, UniProt Q4G0N4); settings: NADK2, SEQ ID NO: 129, ATP BS
# T13 construct: to get the native cell lysate; endogenous in cells; host or cells: A375
# NME3 = biological target: T14, NME3 (Homo sapiens, UniProt Q13232); settings: NME3, SEQ ID NO: 134, ATP BS
# T14 construct: to get the native cell lysate; endogenous in cells; host or cells: A375
# NSF = biological target: T15, NSF (Homo sapiens, UniProt P46459)
# T15 construct: to get the native cell lysate; endogenous in cells; host or cells: A375
# PC = biological target: T16, PC (Homo sapiens, UniProt P11498); settings: SEQ ID NO: 152, ATP BS
# T16 construct: to get the native cell lysate; endogenous in cells; host or cells: A375
# PFAS = biological target: T17, PFAS (Homo sapiens, UniProt O15067); settings: SEQ ID NO: 157, ATP BS
# T17 construct: to get the native cell lysate; endogenous in cells; host or cells: A375 cell lysate
# PMVK = biological target: T18, PMVK (Homo sapiens, UniProt Q15126); settings: SEQ ID NO: 163, ATP BS
# T18 construct: to get the native cell lysate; endogenous in cells; host or cells: A375 cell lysate
# PSMC1 = biological target: T19, PSMC1 (Homo sapiens, UniProt P62191); settings: PSMC1, SEQ ID NO: 173, ATP BS
# T19 construct: endogenous in cells; host or cells: A375 cell lysate
# TOR3A = biological target: T20, TOR3A (Homo sapiens, UniProt Q9H497); settings: SEQ ID NO: 206, ATP BS
# T20 construct: to get the native cell lysate; endogenous in cells; host or cells: A375 cell lysate
# UBA2 = biological target: T21, UBA2 (Homo sapiens, UniProt Q9UBT2)
# T21 construct: to get the native cell lysate; endogenous in cells; host or cells: A375 cell lysate
# VPS4A, VPS4B = settings: SEQ ID NO: 229, ATP BS
# T11 sequence (Q9Y4L1 33-999): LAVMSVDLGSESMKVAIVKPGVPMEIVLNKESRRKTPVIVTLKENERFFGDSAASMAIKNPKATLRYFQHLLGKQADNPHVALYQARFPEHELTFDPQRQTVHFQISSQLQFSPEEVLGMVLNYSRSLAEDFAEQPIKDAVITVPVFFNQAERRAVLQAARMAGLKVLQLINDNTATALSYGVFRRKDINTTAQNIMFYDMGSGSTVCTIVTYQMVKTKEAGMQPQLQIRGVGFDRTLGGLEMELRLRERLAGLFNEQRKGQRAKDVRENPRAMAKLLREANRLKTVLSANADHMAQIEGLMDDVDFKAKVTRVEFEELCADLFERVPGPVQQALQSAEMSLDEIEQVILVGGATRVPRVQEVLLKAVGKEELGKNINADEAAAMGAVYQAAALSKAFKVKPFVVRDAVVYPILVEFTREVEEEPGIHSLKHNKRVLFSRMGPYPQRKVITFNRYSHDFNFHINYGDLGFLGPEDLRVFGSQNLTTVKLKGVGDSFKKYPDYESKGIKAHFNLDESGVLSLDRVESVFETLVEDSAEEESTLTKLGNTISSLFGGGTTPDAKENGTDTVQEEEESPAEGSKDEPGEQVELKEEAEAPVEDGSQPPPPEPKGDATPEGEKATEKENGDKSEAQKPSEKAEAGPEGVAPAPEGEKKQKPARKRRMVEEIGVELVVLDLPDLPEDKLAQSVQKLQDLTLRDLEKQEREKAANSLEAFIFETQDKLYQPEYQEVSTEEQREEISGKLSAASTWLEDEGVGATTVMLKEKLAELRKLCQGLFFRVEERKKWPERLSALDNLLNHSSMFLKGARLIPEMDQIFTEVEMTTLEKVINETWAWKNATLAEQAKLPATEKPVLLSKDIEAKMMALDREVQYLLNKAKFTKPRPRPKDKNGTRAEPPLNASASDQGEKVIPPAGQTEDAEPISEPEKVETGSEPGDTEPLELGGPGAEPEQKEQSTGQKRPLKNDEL
# T8 sequence (Q13057 whole entry): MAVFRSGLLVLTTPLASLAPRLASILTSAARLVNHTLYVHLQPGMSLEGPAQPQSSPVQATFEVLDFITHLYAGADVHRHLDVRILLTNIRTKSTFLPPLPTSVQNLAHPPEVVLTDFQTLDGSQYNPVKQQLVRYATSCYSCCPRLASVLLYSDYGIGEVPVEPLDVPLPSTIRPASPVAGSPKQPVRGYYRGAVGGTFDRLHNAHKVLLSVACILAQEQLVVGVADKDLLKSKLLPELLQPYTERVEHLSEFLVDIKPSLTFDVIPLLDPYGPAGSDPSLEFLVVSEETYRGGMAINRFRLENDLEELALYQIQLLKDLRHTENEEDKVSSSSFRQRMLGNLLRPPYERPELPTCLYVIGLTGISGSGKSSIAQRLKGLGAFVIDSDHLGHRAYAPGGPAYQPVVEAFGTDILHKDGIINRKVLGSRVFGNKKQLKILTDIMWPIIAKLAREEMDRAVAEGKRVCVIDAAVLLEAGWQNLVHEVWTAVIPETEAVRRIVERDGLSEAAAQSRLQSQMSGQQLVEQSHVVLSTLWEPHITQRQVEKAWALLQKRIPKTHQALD
# T15 sequence (P46459 whole entry): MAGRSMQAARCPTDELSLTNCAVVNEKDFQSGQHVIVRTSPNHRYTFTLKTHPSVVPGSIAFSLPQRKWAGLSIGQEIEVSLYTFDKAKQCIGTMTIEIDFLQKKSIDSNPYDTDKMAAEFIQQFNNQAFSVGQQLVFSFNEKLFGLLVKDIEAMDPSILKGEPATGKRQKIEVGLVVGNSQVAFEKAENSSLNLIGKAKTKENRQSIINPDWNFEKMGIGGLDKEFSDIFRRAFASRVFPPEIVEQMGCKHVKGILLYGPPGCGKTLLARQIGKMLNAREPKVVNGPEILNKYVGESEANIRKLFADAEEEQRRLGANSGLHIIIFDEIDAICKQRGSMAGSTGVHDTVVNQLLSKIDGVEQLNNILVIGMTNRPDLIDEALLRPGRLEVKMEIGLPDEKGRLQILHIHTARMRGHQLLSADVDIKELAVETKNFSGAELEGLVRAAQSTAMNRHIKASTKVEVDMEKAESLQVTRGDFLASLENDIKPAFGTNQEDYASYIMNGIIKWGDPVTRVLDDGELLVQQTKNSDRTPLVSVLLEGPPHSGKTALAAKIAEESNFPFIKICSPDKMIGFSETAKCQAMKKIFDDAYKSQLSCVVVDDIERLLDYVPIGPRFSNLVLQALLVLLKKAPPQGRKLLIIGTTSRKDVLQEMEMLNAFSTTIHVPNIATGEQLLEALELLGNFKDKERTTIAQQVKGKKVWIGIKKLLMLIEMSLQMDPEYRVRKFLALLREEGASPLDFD
# T9 sequence (Q8N4P3 whole entry): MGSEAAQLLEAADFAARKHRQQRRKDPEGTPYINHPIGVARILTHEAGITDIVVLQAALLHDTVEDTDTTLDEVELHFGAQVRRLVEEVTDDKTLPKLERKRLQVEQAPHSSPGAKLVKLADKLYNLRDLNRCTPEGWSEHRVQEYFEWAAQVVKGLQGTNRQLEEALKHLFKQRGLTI
# T2 sequence (O15439 whole entry): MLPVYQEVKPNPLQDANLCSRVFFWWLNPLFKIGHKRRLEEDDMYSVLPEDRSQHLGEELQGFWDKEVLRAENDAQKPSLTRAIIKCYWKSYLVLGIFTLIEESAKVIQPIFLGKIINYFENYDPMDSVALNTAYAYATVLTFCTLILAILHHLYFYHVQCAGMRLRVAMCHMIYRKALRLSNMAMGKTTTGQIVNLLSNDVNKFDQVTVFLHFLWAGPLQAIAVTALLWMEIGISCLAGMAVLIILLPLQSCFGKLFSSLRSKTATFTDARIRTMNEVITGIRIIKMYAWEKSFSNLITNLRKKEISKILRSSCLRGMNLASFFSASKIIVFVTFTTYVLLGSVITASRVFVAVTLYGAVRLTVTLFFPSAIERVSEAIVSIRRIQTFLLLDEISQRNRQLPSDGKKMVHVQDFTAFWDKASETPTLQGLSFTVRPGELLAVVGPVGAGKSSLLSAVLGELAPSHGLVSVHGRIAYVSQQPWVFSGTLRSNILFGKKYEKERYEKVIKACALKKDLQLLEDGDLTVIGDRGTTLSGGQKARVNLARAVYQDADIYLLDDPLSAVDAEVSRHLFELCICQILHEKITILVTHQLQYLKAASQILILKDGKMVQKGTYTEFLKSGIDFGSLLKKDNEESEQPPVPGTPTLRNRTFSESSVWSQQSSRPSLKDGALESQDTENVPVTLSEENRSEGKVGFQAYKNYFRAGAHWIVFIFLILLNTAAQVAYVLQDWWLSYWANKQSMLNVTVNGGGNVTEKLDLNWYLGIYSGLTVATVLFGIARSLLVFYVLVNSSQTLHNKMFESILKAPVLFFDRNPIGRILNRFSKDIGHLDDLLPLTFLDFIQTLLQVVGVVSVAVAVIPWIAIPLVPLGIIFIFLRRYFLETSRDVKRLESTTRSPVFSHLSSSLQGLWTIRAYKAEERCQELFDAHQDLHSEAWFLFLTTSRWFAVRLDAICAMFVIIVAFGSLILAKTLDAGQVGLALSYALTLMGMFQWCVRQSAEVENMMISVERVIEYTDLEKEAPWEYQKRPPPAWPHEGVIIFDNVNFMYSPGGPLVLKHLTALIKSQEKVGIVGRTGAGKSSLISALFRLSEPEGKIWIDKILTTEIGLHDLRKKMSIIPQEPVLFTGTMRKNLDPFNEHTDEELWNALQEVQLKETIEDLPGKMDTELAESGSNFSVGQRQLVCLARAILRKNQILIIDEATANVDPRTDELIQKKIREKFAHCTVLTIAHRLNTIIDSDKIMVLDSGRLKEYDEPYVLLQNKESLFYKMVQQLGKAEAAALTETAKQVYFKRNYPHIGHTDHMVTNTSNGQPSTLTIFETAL
# T21 sequence (Q9UBT2 whole entry): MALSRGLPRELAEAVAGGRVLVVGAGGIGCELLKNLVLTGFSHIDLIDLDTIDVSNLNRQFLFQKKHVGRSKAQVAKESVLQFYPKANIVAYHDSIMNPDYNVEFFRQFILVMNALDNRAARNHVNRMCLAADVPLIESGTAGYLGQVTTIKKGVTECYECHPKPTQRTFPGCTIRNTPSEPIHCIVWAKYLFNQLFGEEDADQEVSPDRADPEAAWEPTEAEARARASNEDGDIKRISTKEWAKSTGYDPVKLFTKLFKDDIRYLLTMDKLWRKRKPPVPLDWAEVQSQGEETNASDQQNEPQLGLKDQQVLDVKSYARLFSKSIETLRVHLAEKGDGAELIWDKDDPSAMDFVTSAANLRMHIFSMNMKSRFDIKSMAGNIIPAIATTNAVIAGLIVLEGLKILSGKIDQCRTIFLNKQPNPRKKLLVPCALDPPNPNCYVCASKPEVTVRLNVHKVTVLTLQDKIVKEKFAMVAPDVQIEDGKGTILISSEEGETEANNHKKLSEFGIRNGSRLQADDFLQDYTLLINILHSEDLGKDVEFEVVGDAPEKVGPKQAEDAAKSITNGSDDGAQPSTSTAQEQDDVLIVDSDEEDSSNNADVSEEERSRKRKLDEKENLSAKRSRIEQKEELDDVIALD
# T21 sequence (Q9UBE0 whole entry partner): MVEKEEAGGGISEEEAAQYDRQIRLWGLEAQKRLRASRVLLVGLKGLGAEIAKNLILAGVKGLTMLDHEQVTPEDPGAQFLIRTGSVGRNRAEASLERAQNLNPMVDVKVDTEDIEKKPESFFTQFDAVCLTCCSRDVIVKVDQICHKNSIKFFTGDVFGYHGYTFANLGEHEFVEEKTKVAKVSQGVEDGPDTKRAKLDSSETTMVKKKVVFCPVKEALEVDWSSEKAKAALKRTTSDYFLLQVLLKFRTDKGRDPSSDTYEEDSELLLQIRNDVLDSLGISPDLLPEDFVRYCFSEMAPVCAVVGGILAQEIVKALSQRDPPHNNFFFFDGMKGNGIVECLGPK
# T14 sequence (Q13232 whole entry): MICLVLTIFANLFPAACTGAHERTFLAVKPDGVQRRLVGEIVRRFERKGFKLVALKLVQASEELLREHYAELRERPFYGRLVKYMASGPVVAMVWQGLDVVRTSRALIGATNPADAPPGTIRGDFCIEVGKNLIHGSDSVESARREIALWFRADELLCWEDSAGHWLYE
smiles,measurement,setting,value
"Cn1c(=O)[nH]c2ccc(-c3cccc(C(=O)NC4CCn5ccnc5C4)c3)cc21 (stereo not shown) [Z36-MP5, 3-(3-methyl-2-oxo-2,3-dihydro-1H-benzo[d]imidazol-5-yl)-N-(5,6,7,8-tetrahydroimidazo[1,2-a]pyridin-7-yl)benzamide]",Inhibition (%) by 1 μM Z36-MP5,"ABCC3; ABCC3, SEQ ID NO: 9, ATP BS",4.57%
same,Inhibition (%) by 1 μM Z36-MP5,"ABCC3; ABCC3, SEQ ID NO: 10, ATP BS",9.43%
same,Inhibition (%) by 1 μM Z36-MP5,"ABCC4; ABCC4, SEQ ID NO: 11, ATP BS",1.76%
same,Inhibition (%) by 1 μM Z36-MP5,"ABCC4; ABCC4, SEQ ID NO: 12, ATP BS",8.93%
same,Inhibition (%) by 1 μM Z36-MP5,ABCF3,5.45%
same,Inhibition (%) by 1 μM Z36-MP5,ACACB,−1.87%
same,Inhibition (%) by 1 μM Z36-MP5,AHCY,−10.85%
same,Inhibition (%) by 1 μM Z36-MP5,APRT,0.39%
same,Inhibition (%) by 1 μM Z36-MP5,"ATG7; ATG7, SEQ ID NO: 45, ATP BS",−0.18%
same,Inhibition (%) by 1 μM Z36-MP5,"ATG7; ATG7, SEQ ID NO: 46, ATP BS",−6.20%
same,Inhibition (%) by 1 μM Z36-MP5,"COASY; SEQ ID NO: 62, ATP BS",−3.39%
same,Inhibition (%) by 1 μM Z36-MP5,"COASY; SEQ ID NO: 63, ATP BS",23.55%
same,Inhibition (%) by 1 μM Z36-MP5,"HDDC3; HDDC3, SEQ ID NO: 90, ATP BS",1.23%
same,Inhibition (%) by 1 μM Z36-MP5,"HDDC3; HDDC3, SEQ ID NO: 91, ATP BS",17.25%
same,Inhibition (%) by 1 μM Z36-MP5,"HSPA5; HSPA5, SEQ ID NO: 104, ATP BS",−16.08%
same,Inhibition (%) by 1 μM Z36-MP5,"HSPA5; HSPA5, SEQ ID NO: 105, ATP BS",−7.84%
same,Inhibition (%) by 1 μM Z36-MP5,"HYOU1; HYOU1, SEQ ID NO: 109, ATP BS",−13.34%
same,Inhibition (%) by 1 μM Z36-MP5,"HYOU1; HYOU1, SEQ ID NO: 110, ATP BS",−6.78%
same,Inhibition (%) by 1 μM Z36-MP5,MDN1,3.28%
same,Inhibition (%) by 1 μM Z36-MP5,NADK2,−11.03%
same,Inhibition (%) by 1 μM Z36-MP5,NME3,1.91%
same,Inhibition (%) by 1 μM Z36-MP5,"NSF; SEQ ID NO: 138, ATP BS",6.03%
same,Inhibition (%) by 1 μM Z36-MP5,"NSF; SEQ ID NO: 139, ATP BS",−6.18%
same,Inhibition (%) by 1 μM Z36-MP5,PC,−15.19%
same,Inhibition (%) by 1 μM Z36-MP5,PFAS,−4.58%
same,Inhibition (%) by 1 μM Z36-MP5,PMVK,−5.60%
same,Inhibition (%) by 1 μM Z36-MP5,PSMC1,−7.42%
same,Inhibition (%) by 1 μM Z36-MP5,TOR3A,6.55%
same,Inhibition (%) by 1 μM Z36-MP5,"UBA2; UBA2, SEQ ID NO: 218, ATP BS",0.55%
same,Inhibition (%) by 1 μM Z36-MP5,"UBA2; UBA2, SEQ ID NO: 219, ATP BS",7.64%
same,Inhibition (%) by 1 μM Z36-MP5,"VPS4A, VPS4B",−2.55%
